Here are results for one compound from patent US6174907A, “Benzimidazole compounds containing 1,2,4-triazole ring, and compositions and methods of use containing the same” (Fuji Photo Film Co., Ltd., priority 1995, dated 2001).

The structures appear in SMILES notation.

Data set [1] has as its system rabbits fed with high cholesterol food. The data set can be described thus: Suppression of formation of arterial sclerosis lesions (cholesterol deposited on inner vascular walls of aortas). The data set is classed as in vivo, NZW rabbits (male). To be noted: 100 mg/kg/day/rabbit in feed; aortas removed seven weeks after the administration. The text has this: Activity of the compounds of the present invention for suppressing the formation of arterial sclerosis lesions (in vivo experiment)
(§1) By using rabbits fed with high cholesterol food, effect on lipid in blood and activity of the compounds of the present invention for suppressing formation of arterial sclerosis lesions were examined. Hypercholesterolemia condition was created by feeding NZW rabbits (male) weighing about 2 kg with high cholesterol feed (100 g/day/rabbit of OCR-4 [Oriental Yeast]+0.5% cholesterol+0.5% olive oil) for seven days. A group consisting of three rabbits was continuously administered with a compound of the present invention (Compound B16 or Compound B49) for seven days by mixing the compound with the above feed at an amount of 100 mg/kg/day/rabbit. Another group consisting of three rabbits was fed solely with the high cholesterol feed and used as a control group.
Aortas were removed seven weeks after the administration, and cholesterol deposited on inner vascular walls was quantified. In the groups administered with Compound B16 or Compound B49, the amount of deposited cholesterol was reduced by 40% and 45% compared with control, respectively.

For data set [2] the test system is unchanged. The data set is described as follows: Effect on lipid in blood, GOT and GPT in rabbits fed with high cholesterol food. To be noted: 100 mg/kg/day/rabbit in feed. The data set is classed as in vivo, NZW rabbits (male).
From the text: as §1, with “Activity of the compounds of the present invention for suppressing the formation of arterial sclerosis lesions (in vivo experiment) By” for “By”, “group. Blood was collected from parotid veins with one week interval, and total cholesterol, LDL cholesterol, HDL cholesterol, GOT, and GPT were measured.” for “group.”

Data set [3] concerns mouse peritoneal macrophages. The data set can be described thus: Suppression of foaming of macrophages (cholesterol ester synthesis) in vitro. The data set is classed as cell-based, mouse (female ICR). The following applies: Mus musculus, Peritoneal macrophage; Table 4; 5 μM; 16 hours; relative to control as 100%; smaller value = more potent suppression; read-out: Rate of CE synthesis (%).

In data set [4] the test system is mouse peritoneal macrophages. The data set can be described thus: Cytotoxicity examined microscopically (morphological alteration of cells). The data set is classed as cell-based, mouse (female ICR). The following applies: Table 4; 5 μM; observed microscopically.
The mark [5] stands for this setting: seven days, high cholesterol feed.

In the case of `c1cnc(SCCCCCSc2nc3ccccc3[nH]2)nc1` [Compound B49], the “Reduction of the amount of deposited cholesterol on inner vascular walls of aortas compared with control” value in data set [1] is 45%. Also, in data set [2] (setting [5]), the “Difference in total cholesterol compared with the control group” value is listed as “no difference in total cholesterol was observed”, the “Increase of HDL cholesterol” value was 30% and the “Reduction of LDL cholesterol compared with the control group” value was determined as 30%. Also, in data set [2] (during the experiment), the GOT result is listed as “No abnormal value was observed” and the GPT result is “No abnormal value was observed”. Also, the activity at 5 µM in data set [3] is 11%. Besides, the Cytotoxicity result in data set [4] was “Not observed”.
